Starred links: 1 amine or outer side, 2 acyl side, 3 side chain; linkers in the order of their positions; H or OH if unused. Non-standard residues stand in square brackets, D forms with d. Residues, ends and D or L forms follow the SMILES beside them. *: point of attachment. Dolaproine = CO[C@@H]([C@@H]1CCCN1)[C@@H](C)C(=O)O; Dil = CC[C@H](C)[C@H](NC)[C@@H](CC(=O)O)OC; X7 = C[C@@]1(C(=O)[*:2])CCCCN1[*:1]; Doe = c1ccc(C[C@H](N*)c2nccs2)cc1; NMeαMePro = CN1CCC[C@@]1(C)C(=O)*; Ac4c(3-oxa) = NC1(C(=O)O)COC1; NHPhenethyl = c1ccc(CCN*)cc1; αMeP = C[C@@]1(C(=O)O)CCCN1; NMeAib = CNC(C)(C)C(=O)O; Ac5c = NC1(C(=O)O)CCCC1; Aib = CC(C)(N)C(=O)O; OtBu = CC(C)(C)O*
Assays:
Test in all cases: In vitro cell assay, MTS cell viability 96 hours after treatment
Format in all cases: cell-based
BT474 (breast cancer) = settings: Homo sapiens, BT-474, BT474 cells; geometric mean; cytotoxic peptides; read-out: BT474 GMEAN IC50
In short: (§1)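 Duplicate wells received antibody-drug conjugates or free compounds across ten 3-fold dilutions. MTS assay determined viability, normalised to untreated controls.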

N87 (gastric cancer) = settings: read-out: N87 GMEAN IC50, N87 cells; geometric mean; cytotoxic peptides
In short: as §1

[1] = test system: MDA-MB-361-DYT2 (breast cancer); settings: read-out: MDA-MB-361-DYT2 GMEAN IC50, MDA-MB-361-DYT2 cells; geometric mean; cytotoxic peptides
In short: as §1

SMILES	IC50 (BT474 (breast cancer))	IC50 (N87 (gastric cancer))	IC50 [1]
CC[C@H](C)[C@@H]([C@@H](CC(=O)N1CCC[C@H]1[C@H](OC)[C@@H](C)C(=O)NCCc1ccccc1)OC)N(C)C(=O)[C@@H](NC(=O)C1(N)COC1)C(C)C [#75, N^2-[(3-aminooxetan-3-yl)carbonyl]-N-{(3R,4S,5S)-3-methoxy-1-[(2S)-2-{(1R,2R)-1-methoxy-2-methyl-3-oxo-3-[(2-phenylethyl)amino]propyl}pyrrolidin-1-yl]-5-methyl-1-oxoheptan-4-yl}-N-methyl-L-valinamide] (H-[Ac4c(3-oxa)]V[Dil][Dolaproine]-NHPhenethyl)	> 100 nM	> 100 nM	> 100 nM
CC[C@H](C)[C@@H]([C@@H](CC(=O)N1CCC[C@H]1[C@H](OC)[C@@H](C)C(=O)N[C@@H](Cc1ccccc1)C(=O)OC)OC)N(C)C(=O)[C@@H](NC(=O)[C@@]1(F)CCNC1)C(C)C [#172, methyl N-{(2R,3R)-3-[(2S)-1-{(3R,4S,5S)-4-[(N-{[(3R)-3-fluoropyrrolidin-3-yl]carbonyl}-L-valyl)(methyl)amino]-3-methoxy-5-methylheptanoyl}pyrrolidin-2-yl]-3-methoxy-2-methylpropanoyl}-L-phenylalaninate]	0.057 nM	0.144 nM	0.086 nM
CC[C@H](C)[C@@H]([C@@H](CC(=O)N1CCC[C@H]1[C@H](OC)[C@@H](C)C(=O)N[C@@H](Cc1ccccc1)C(=O)O)OC)N(C)C(=O)[C@@H](NC(=O)[C@]1(C)CCCCN1)C(C)C [#162, N-{(2R,3R)-3-methoxy-3-[(2S)-1-{(3R,4S,5S)-3-methoxy-5-methyl-4-[methyl(N-{[(2S)-2-methylpiperidin-2-yl]carbonyl}-L-valyl)amino]heptanoyl}pyrrolidin-2-yl]-2-methylpropanoyl}-L-phenylalanine] (H-[X7]V[Dil][Dolaproine]F-OH)	31.4 nM	21.6 nM	27.8 nM
CC[C@H](C)[C@@H]([C@@H](CC(=O)N1CCC[C@H]1[C@H](OC)[C@@H](C)C(=O)N[C@@H](Cc1ccccc1)c1nccs1)OC)N(C)C(=O)[C@@H](NC(=O)C(C)(C)CNC)C(C)C [#154, N˜2˜-[2,2-dimethyl-3-(methylamino)propanoyl]-N-{(1S,2R)-2-methoxy-4-{(2S)-2-[(1R,2R)-1-methoxy-2-methyl-3-oxo-3-{[(1S)-2-phenyl-1-(1,3-thiazol-2-yl)ethyl]amino}propyl]pyrrolidin-1-yl}-1-[(1S)-1-methylpropyl]-4-oxobutyl}-N-methyl-L-valinamide]	0.193 nM	0.572 nM	0.198 nM
CC[C@H](C)[C@@H]([C@@H](CC(=O)N1CCC[C@H]1[C@H](OC)[C@@H](C)C(=O)N[C@@H](Cc1ccccc1)C(=O)OC)OC)N(C)C(=O)[C@@H](NC(=O)[C@]1(C)CCCCN1)C(C)C (single isomer, unassigned) [#158]	0.082 nM	0.115 nM	0.1 nM
CC[C@H](C)[C@@H]([C@@H](CC(=O)N1CCC[C@H]1[C@H](OC)[C@@H](C)C(=O)N[C@@H](Cc1ccc2c(c1)CCCN2)C(=O)OC)OC)N(C)C(=O)[C@@H](NC(=O)[C@@]1(C)CCCN1C)C(C)C [#200, 1,2-dimethyl-D-prolyl-N-[(3R,4S,5S)-3-methoxy-1-{(2S)-2-[(1R,2R)-1-methoxy-3-{[(2S)-1-methoxy-1-oxo-3-(1,2,3,4-tetrahydroquinolin-6-yl)propan-2-yl]amino}-2-methyl-3-oxopropyl]pyrrolidin-1-yl}-5-methyl-1-oxoheptan-4-yl]-N-methyl-L-valinamide]	0.048 nM	0.029 nM	0.017 nM
CC[C@H](C)[C@@H]([C@@H](CC(=O)N1CCC[C@H]1[C@H](OC)[C@@H](C)C(=O)NCCC1C=CC=CC=C1)OC)N(C)C(=O)[C@@H](NC(=O)[C@@]1(F)CCNC1)C(C)C [#184, N-[(3R,4S,5S)-1-{(2S)-2-[(1R,2R)-3-{[2-(cyclohepta-2,4,6-trien-1-yl)ethyl]amino}-1-methoxy-2-methyl-3-oxopropyl]pyrrolidin-1-yl}-3-methoxy-5-methyl-1-oxoheptan-4-yl]-N˜2˜-{[(3R)-3-fluoropyrrolidin-3-yl]carbonyl}-N-methyl-L-valinamide]	2.48 nM	5.1 nM	3.43 nM
CC[C@H](C)[C@@H]([C@@H](CC(=O)N1CCC[C@H]1[C@H](OC)[C@@H](C)C(=O)N[C@@H](Cc1ccccc1)C(=O)OC(C)(C)C)OC)N(C)C(=O)[C@@H](NC(=O)C(C)(C)N)C(C)C [#123, 2-methylalanyl-N-[(3R,4S,5S)-1-{(2S)-2-[(1R,2R)-3-{[(2S)-1-tert-butoxy-1-oxo-3-phenylpropan-2-yl]amino}-1-methoxy-2-methyl-3-oxopropyl]pyrrolidin-1-yl}-3-methoxy-5-methyl-1-oxoheptan-4-yl]-N-methyl-L-valinamide] (H-[Aib]V[Dil][Dolaproine]F-OtBu)	0.125 nM	0.089 nM	0.129 nM
CC[C@H](C)[C@@H]([C@@H](CC(=O)N1CCC[C@H]1[C@H](OC)[C@@H](C)C(=O)N[C@@H](Cc1ccccc1)c1nccs1)OC)N(C)C(=O)[C@@H](NC(=O)C1(N)CCCC1)C(C)C [#47, N^2-[(1-aminocyclopentyl)carbonyl]-N-[(3R,4S,5S)-3-methoxy-1-{(2S)-2-[(1R,2R)-1-methoxy-2-methyl-3-oxo-3-{[(1S)-2-phenyl-1-(1,3-thiazol-2-yl)ethyl]amino}propyl]pyrrolidin-1-yl}-5-methyl-1-oxoheptan-4-yl]-N-methyl-L-valinamide] (H-[Ac5c]V[Dil][Dolaproine]-Doe)	< 0.244 nM	< 0.256 nM	0.317 nM
CC[C@H](C)[C@@H]([C@@H](CC(=O)N1CCC[C@H]1[C@H](OC)[C@@H](C)C(=O)N[C@@H](Cc1ccccc1)C(=O)O)OC)N(C)C(=O)[C@@H](NC(=O)C(C)(C)NC)C(C)C [#115, N,2-dimethylalanyl-N-{(1S,2R)-4-{(2S)-2-[(1R,2R)-3-{[(1S)-1-carboxy-2-phenylethyl]amino}-1-methoxy-2-methyl-3-oxopropyl]pyrrolidin-1-yl}-2-methoxy-1-[(1S)-1-methylpropyl]-4-oxobutyl}-N-methyl-L-valinamide] (H-[NMeAib]V[Dil][Dolaproine]F-OH)	31.5 nM	50.3 nM	19.9 nM
CC[C@H](C)[C@@H]([C@@H](CC(=O)N1CCC[C@H]1[C@H](OC)[C@@H](C)C(=S)N[C@@H](Cc1ccccc1)C(=O)O)OC)N(C)C(=O)[C@@H](NC(=O)C(C)(C)N)C(C)C [#44, 2-methylalanyl-N-[(3R,4S,5S)-1-{(2S)-2-[(1R,2R)-3-{[(1S)-1-carboxy-2-phenylethyl]amino}-1-methoxy-2-methyl-3-thioxopropyl]pyrrolidin-1-yl}-3-methoxy-5-methyl-1-oxoheptan-4-yl]-N-methyl-L-valinamide]	7.12 nM	14.6 nM	> 16.4 nM
CC[C@H](C)[C@@H]([C@@H](CC(=O)N1CCC[C@H]1[C@H](OC)[C@@H](C)C(=S)N[C@@H](Cc1ccccc1)c1nccs1)OC)N(C)C(=O)[C@@H](NC(=O)C1(N)CCCC1)C(C)C [#30, N^2-[(1-aminocyclopentyl)carbonyl]-N-[(3R,4S,5S)-3-methoxy-1-{(2S)-2-[(1R,2R)-1-methoxy-2-methyl-3-{[(1S)-2-phenyl-1-(1,3-thiazol-2-yl)ethyl]amino}-3-thioxopropyl]pyrrolidin-1-yl}-5-methyl-1-oxoheptan-4-yl]-N-methyl-L-valinamide]	0.682 nM	6.71 nM	1.85 nM
CC[C@H](C)[C@@H]([C@@H](CC(=O)N1CCC[C@H]1[C@H](OC)[C@@H](C)C(=O)N[C@@H](Cc1ccccc1)C(=O)OC)OC)N(C)C(=O)[C@@H](NC(=O)[C@]1(C)CCCN1C)C(C)C [#209, 1,2-dimethyl-L-prolyl-N-[(3R,4S,5S)-3-methoxy-1-{(2S)-2-[(1R,2R)-1-methoxy-3-{[(2S)-1-methoxy-1-oxo-3-phenylpropan-2-yl]amino}-2-methyl-3-oxopropyl]pyrrolidin-1-yl}-5-methyl-1-oxoheptan-4-yl]-N-methyl-L-valinamide] (NMeαMePro-V[Dil][Dolaproine]F-OMe)	0.067 nM	0.067 nM	0.058 nM
CC[C@H](C)[C@@H]([C@@H](CC(=O)N1CCC[C@H]1[C@H](OC)[C@@H](C)C(=O)N[C@@H](Cc1c[nH]cn1)C(=O)OC)OC)N(C)C(=O)[C@@H](NC(=O)C(C)(C)NC)C(C)C [#242] (H-[NMeAib]V[Dil][Dolaproine]H-OMe)	32.3 nM	41.3 nM	34.5 nM
CC[C@H](C)[C@@H]([C@@H](CC(=O)N1CCC[C@H]1[C@H](OC)[C@@H](C)C(=O)N[C@@H](Cc1ccccc1)C(=O)O)OC)N(C)C(=O)[C@@H](NC(=O)[C@]1(C)CCCN1)C(C)C [#118, 2-methyl-L-prolyl-N-[(3R,4S,5S)-1-{(2S)-2-[(1R,2R)-3-{[(1S)-1-carboxy-2-phenylethyl]amino}-1-methoxy-2-methyl-3-oxopropyl]pyrrolidin-1-yl}-3-methoxy-5-methyl-1-oxoheptan-4-yl]-N-methyl-L-valinamide] (H-[αMeP]V[Dil][Dolaproine]F-OH)	≥ 100 nM	≥ 100 nM	≥ 100 nM
CC[C@H](C)[C@@H]([C@@H](CC(=O)N1CCC[C@H]1[C@H](OC)[C@@H](C)C(=O)N[C@@H](Cc1ccccc1)C(=O)OC)OC)N(C)C(=O)[C@@H](NC(=O)C(C)(C)CNC)C(C)C [#155, methyl N-{(2R,3R)-3-[(2S)-1-{(3R,4S,5S)-4-[{N-[2,2-dimethyl-3-(methylamino)propanoyl]-L-valyl}(methyl)amino]-3-methoxy-5-methylheptanoyl}pyrrolidin-2-yl]-3-methoxy-2-methylpropanoyl}-L-phenylalaninate]	0.323 nM	0.875 nM	0.318 nM
CC[C@H](C)[C@@H]([C@@H](CC(=O)N1CCC[C@H]1[C@H](OC)[C@@H](C)C(=O)N[C@H](Cc1ccccc1)C(=O)O)OC)N(C)C(=O)[C@@H](NC(=O)C(C)(C)NC)C(C)C [#244] (H-[NMeAib]V[Dil][Dolaproine][dF]-OH)	73.1 nM	≥ 100 nM	≥ 100 nM

— patent US8828401B2, “Cytotoxic peptides and antibody drug conjugates thereof” (Pfizer Inc., priority 2011, dated 2014)
